{
  "source": "patent US20210343368A1",
  "about": "“Method for Engineering Synthetic Cis-Regulatory DNA” (Max-Delbrück-Centrum für Molekulare Medizin in der …, priority 2018, published 2021)",
  "type_in_all_cases": "cell-based, human",
  "key": {"[1]": {"system": "MES-hGICs-MGT #1low and PN-hGICs-MGT #1low cells", "experiment": "FACS quantification of Mesenchymal transdifferentiation after Ionizing Radiation and TNFα", "details": "TNFα combined with IR 10 Gy", "text": "Irradiation of hGICs: Irradiation was delivered using the XenX irradiator platform (XStrahl Life Sciences), equipped with a 225 kV X-ray tube for targeted irradiation. hGICs cultured in either 6-well plates or 96-well plates were placed in the focal plane of the beamline and exposed to irradiation for a specific time, depending on the target dosage, as calculated with an internal calculation software.\nMesenchymal Differentiation in GBM was originally described as a dominant event at recurrence after radiotherapy^19 and later linked to acquired radio-resistance via TNF-driven NFKB activation^20. Repeatedly, correlative evidences support a link between inflammatory signaling, EMT and radio-resistance^34. To functionally test whether irradiation may induce Mesenchymal transdifferentiation in cell autonomous manner, MES-hGICs-MGT #1^low and PN-hGICs-MGT #1^low cells were exposed to Ionizing Radiation (IR), alone or in combination with TNFα. […] The residual DNA damage marker […] phosphorylation twenty-four hours post irradiation confirmed the occurrence of both double-strand breaks and repair. However, only a minor proportion of GICs turned to a MGT #1^high state from either genetic background (FIG. 2g-h). […] The data also support the speculation that NFKB activation is augmented as a result of non-canonical signaling caused by genotoxic stress^36."}, "[2]": {"system": "MES-hGICs-MGT #1low and PN-hGICs-MGT #1low cells", "experiment": "Phenotypic screening of sLCR response to selected factors, FACS", "details": "48 hours after stimulation", "experimental": "NBE-propagated hGICs were stimulated with selected factors (cytokines, growth factors, compounds) and FACS analyzed 48 hours after stimulation (FIG. 13b). […] (FIG. 13b-c and 17). […] Indeed, TNFα was previously reported as a prominent MES-GBM signaling pathway and inducer of a PN-to-MES transition."}, "[3]": {"system": "RELA KO MES-hGICs", "experiment": "FACS quantification of MGT #1 in RELA KO MES-hGICs", "details": "polyclonal and monoclonal RELA KO cells", "experimental": "(§1) FACS analysis: Analysis was performed with FlowJo_V10.\nCanonical NFkB activation can occur downstream TNFα signaling as well as by non-canonical genotoxic stress."}, "[4]": {"system": "PN-hGICs-MGT #1low", "experiment": "FACS of MGT #1 response to TNFα", "details": "equal basal MGT #1 levels by FACS sorting", "experimental": "as §1\n(§2) FACS sorting: Transduced hGICs were harvested into single cell suspensions and resuspended into cold RHB-A complete and filtered into FACS tubes. Sorting was conducted using BD FACSAria III or Fusion. The appropriate laser-filter combinations were chosen depending on the fluorophores being sorted for. Typically, to remove dead cells, events were first gated on the basis of shape and granularity (FSC-A vs. SSC-A) and doublets were excluded (FSC-A vs. FSC-H). Positive gates were established on PGK-driven and constitutively expressed H2B-CFP as sorting reporter, to sort for populations with low to medium intensity of sLCR-dependent fluorophore expression.\n(§3) Next, near-isogenic and characterized MES-hGICs and PN-hGICs were transduced with MGT #1 lentiviral particles. PN-hGICs bear a combination of IDH1 and TP53 point mutations, which is only found in PN GBM, whereas MES-hGICs have triple knockdown of TP53, PTEN and NF1, featuring a MES GBM background. […] As TNFa is considered a prominent MES-GBM signaling pathway, and can induce a PN-to-MES transition^20, we next tested whether MGT #1 is faithfully reproducing a MES GBM signaling by exposing either MES-hGICs-MGT #1^low and PN-hGICs-MGT #1^low W to TNFα. […] Reassuringly, TNFα induced a fluorescence increase in both cell types as compared to each parental control."}, "[5]": {"system": "MES-hGICs-MGT #1low", "experiment": "FACS of MGT #1 response to TNFα", "details": "equal basal MGT #1 levels by FACS sorting", "experimental": "as §1, §2, §3"}, "[6]": {"system": "MES-hGICs-MGT #1low and PN-hGICs-MGT #1low cells", "experiment": "Immunoblotting of signaling pathway activation", "details": "both cell types", "experimental": "Immunoblot: Cell pellets were lysed in RIPA buffer (20 mM Tris-HCl pH7.5, 150 mM NaCl, 1 mM EDTA, 1 mM EGTA, 1% NP-40) supplemented with a 1× Protease inhibitor cocktail (Roche), 10 mM NaPPi, 10 mM NaF, and 1 mM Sodium orthovanadate. The lysates were sonicated if necessary, and electrophoresis was performed using NuPAGE Bis-Tris precast gels (Life Technologies) in NuPAGE MOPS SDS Running Buffer (50 mM MOPS, 50 mM Tris Base, 0.1% SDS, 1 mM EDTA). Protein was transferred onto Nitrocellulose membranes in transfer buffer (25 mM Tris-HCl pH 7.5, 192 mM Glycine, 20% Methanol) at 120 mA for 1 h. Protein transfer was assessed through staining with Ponceau Red for 5 min, following two washes with TBS-T. Blocking of membranes was done for 1 h at room temperature with 5% BSA in PBS. Dilutions of primary antibodies were prepared in PBS+5% BSA and membranes were incubated over night at 4° C. Following three washes for 5 min with TBS-T, dilutions of appropriate HRP-coupled secondary antibodies were prepared in PBS+5% BSA and membranes were incubated for 45 min at room temperature. After washing three times for 5 min with TBS-T, ECL detection reagent (Sigma; RPN2209) was applied and membranes were exposed to ECL Hyperfilms (Sgima; GE28-9068-37) to detect chemoluminescent signals. […]"}},
  "data": [
    {"substance": "TNFα", "values": [
      {"measurement": "Mesenchymal differentiation (MGT #1high)", "setting": "[1]", "value": "augmented Mesenchymal differentiation"},
      {"measurement": "sLCR (MGT #1-2) response normalized to naive hGICs", "setting": "[2]", "value": "MES-GBM regulators"},
      {"measurement": "ability to induce MES-GBM signaling", "setting": "[3]", "value": "markedly impaired"},
      {"measurement": "MGT #1 expression level after TNFα", "setting": "[4]", "value": "only reached PN-hGICs-MGT #1^med levels"},
      {"measurement": "MGT #1 expression level after TNFα", "setting": "[5]", "value": "turned into MES-hGICs-MGT #1^high"},
      {"measurement": "phosphorylation of signaling proteins", "setting": "[6]", "value": "induced phosphorylation of NFkB-p65, STAT3 and p38-MAPK"}
    ]}
  ]
}
